In ChEMBL document CHEMBL3217419, “Blockage of collagen binding to integrin 21: structureactivity relationship of proteinprotein interaction inhibitors” (Medchemcomm, 2011):

Experiments:
[1] = molecular target: Integrin alpha-1 (Homo sapiens) (UniProt P56199); experiment: Inhibition of human alpha1 integrin expressed in CHO cells binding to collagen I at 50 uM after 2 hrs by cell-adhesion-based WST-1 assay
[2] = tested on: CHO; experiment: Cytotoxicity against CHO cells assessed as release of lactate dehydrogenase by resazurin assay; type: cell-based, Cricetulus griseus; conditions: chinese hamster
[3] = molecular target: Integrin alpha-1 (Homo sapiens) (UniProt P56199); experiment: Inhibition of human alpha1 integrin expressed in CHO cells binding to collagen I at 100 uM after 2 hrs by cell-adhesion-based WST-1 assay relative to control
[4] = tested on: CHO; experiment: Selectivity ratio of EC50 for human alpha2 integrin expressed in CHO cells binding to collagen IV to EC50 for human alpha1 integrin expressed in CHO cells binding to collagen I; type: cell-based
[5] = Lipophilicity, log P of the compound; type: physicochemical; conditions: octanol/water
[6] = molecular target: T1, Integrin alpha-1 (Homo sapiens, UniProt P56199); experiment: Inhibition of human alpha1 integrin expressed in CHO cells binding to collagen I after 2 hrs by cell-adhesion-based WST-1 assay
T1 sequence (P56199 whole entry): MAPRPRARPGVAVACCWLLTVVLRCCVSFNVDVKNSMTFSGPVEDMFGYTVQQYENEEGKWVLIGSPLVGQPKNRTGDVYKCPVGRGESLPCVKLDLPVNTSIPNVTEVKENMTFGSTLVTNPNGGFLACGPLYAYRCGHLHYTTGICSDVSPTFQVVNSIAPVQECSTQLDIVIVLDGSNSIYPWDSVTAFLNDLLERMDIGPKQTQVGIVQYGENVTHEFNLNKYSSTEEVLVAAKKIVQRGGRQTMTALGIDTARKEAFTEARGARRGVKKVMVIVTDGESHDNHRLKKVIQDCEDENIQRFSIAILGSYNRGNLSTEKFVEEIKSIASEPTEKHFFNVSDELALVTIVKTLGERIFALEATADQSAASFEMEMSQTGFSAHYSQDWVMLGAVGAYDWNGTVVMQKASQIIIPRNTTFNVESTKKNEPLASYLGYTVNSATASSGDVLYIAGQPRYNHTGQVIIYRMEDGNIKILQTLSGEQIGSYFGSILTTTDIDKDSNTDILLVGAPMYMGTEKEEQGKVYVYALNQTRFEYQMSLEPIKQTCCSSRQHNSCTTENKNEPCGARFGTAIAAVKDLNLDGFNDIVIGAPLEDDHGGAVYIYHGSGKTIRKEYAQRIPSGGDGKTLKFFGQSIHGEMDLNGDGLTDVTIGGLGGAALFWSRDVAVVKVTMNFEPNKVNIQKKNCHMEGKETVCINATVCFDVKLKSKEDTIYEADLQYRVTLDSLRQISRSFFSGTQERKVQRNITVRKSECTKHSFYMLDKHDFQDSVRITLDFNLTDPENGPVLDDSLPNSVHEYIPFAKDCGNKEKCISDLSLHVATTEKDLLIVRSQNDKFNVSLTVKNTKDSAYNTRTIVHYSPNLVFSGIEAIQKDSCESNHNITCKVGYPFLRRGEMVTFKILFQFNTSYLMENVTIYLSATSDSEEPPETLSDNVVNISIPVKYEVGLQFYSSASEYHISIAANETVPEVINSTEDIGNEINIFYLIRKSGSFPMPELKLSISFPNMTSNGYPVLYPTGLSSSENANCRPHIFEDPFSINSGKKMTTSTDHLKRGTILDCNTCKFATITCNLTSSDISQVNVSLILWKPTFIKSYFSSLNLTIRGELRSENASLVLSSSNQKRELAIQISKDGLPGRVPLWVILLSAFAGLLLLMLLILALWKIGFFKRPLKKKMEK

[7] = molecular target: Integrin alpha2/beta1 (Homo sapiens, UniProt P05556+P17301); experiment: Binding affinity to alpha2beta1 integrin (unknown origin); type: protein-complex assay
Integrin alpha2/beta1, sequence (P05556 whole entry): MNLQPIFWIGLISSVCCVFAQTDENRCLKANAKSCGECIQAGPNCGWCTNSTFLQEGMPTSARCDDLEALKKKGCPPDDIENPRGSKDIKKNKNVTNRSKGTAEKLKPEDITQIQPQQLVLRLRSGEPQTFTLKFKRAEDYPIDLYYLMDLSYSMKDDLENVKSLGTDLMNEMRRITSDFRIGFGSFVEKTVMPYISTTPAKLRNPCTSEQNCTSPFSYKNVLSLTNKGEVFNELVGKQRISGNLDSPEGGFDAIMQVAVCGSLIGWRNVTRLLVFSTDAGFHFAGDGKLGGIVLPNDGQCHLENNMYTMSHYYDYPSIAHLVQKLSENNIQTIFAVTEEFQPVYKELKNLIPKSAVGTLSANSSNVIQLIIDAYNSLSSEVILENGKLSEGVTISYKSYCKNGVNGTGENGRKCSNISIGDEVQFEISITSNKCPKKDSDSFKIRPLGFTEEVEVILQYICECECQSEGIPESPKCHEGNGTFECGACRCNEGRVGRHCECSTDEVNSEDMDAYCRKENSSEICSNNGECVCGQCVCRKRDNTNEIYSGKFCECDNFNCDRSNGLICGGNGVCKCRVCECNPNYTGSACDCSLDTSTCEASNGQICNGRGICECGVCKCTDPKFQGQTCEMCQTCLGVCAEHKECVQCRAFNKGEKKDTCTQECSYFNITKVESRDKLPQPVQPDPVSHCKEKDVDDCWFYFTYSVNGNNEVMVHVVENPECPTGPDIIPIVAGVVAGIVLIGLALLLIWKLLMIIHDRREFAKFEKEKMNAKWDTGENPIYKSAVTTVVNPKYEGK
Integrin alpha2/beta1, sequence (P17301 whole entry): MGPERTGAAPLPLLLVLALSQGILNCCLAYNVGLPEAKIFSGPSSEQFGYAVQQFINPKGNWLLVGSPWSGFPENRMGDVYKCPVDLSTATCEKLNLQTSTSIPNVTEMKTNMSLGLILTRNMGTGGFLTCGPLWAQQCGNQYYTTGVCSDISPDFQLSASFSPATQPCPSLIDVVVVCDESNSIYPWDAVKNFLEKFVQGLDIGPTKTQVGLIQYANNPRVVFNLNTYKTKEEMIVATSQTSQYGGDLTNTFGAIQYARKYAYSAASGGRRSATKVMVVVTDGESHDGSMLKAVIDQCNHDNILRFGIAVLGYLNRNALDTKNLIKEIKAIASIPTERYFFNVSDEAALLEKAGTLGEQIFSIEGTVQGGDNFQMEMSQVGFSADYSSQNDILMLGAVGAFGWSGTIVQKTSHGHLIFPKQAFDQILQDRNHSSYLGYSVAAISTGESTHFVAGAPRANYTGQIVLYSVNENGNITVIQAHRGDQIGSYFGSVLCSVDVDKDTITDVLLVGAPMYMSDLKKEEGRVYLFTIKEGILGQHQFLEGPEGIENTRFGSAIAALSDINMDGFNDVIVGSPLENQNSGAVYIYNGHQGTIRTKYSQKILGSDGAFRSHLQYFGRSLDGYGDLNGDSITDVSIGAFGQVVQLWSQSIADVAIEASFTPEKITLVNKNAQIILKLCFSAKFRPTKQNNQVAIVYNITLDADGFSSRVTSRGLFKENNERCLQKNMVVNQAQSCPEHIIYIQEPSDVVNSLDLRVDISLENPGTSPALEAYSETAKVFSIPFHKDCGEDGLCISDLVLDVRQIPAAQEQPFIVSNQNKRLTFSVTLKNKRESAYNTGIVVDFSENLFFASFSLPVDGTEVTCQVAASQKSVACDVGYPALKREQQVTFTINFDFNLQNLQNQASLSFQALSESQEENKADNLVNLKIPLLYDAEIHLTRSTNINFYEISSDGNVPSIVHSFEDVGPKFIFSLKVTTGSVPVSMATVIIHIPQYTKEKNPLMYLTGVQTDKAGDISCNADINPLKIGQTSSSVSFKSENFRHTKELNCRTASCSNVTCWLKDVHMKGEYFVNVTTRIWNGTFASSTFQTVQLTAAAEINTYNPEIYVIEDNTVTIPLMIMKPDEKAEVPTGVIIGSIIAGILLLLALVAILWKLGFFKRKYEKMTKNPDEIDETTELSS

Compound	inhibition [1]	Activity [2]	Imax [3]	Ratio EC50 [4]	logP [5]	EC50 [6]	EC50 [7]
O=C(c1ccccc1)c1ccc(NS(=O)(=O)c2ccc(Cl)cc2Cl)cc1	82%	<= 20 uM	82%	1.5	3.5	–	–
CN(c1ccc(C(=O)c2ccccc2)cc1)S(=O)(=O)c1ccc(Cl)cc1Cl	0%	–	–	–	–	Not Active	–
O=C(c1ccccc1)c1cccc(NS(=O)(=O)c2ccc(Cl)cc2Cl)c1	69%	<= 200 uM	69%	3	–	–	–
O=C(c1ccccc1)c1ccc(NS(=O)(=O)c2ccc(I)cc2)cc1	85%	<= 200 uM	85%	1.3	–	–	–
Cc1ccc(S(=O)(=O)Nc2ccc(C(=O)c3ccccc3)cc2)cc1	35%	<= 200 uM	35%	–	–	Not Active	–
O=C(c1ccccc1)c1ccc(NS(=O)(=O)c2cccc(-c3ccc(F)cc3)c2)cc1	–	–	–	–	–	–	2000 nM
CC(=O)c1cccc(NS(=O)(=O)c2ccc(Cl)cc2Cl)c1	0%	–	–	–	–	Not Active	–
O=C(c1ccccc1)c1cccc(NS(=O)(=O)c2ccc(I)cc2)c1	72%	<= 200 uM	72%	–	–	–	–
O=C(c1ccccc1)c1ccc(OS(=O)(=O)c2cc(Cl)cc(Cl)c2O)cc1	86%	<= 100 uM	95%	2.8	3.1	–	–
O=C(c1ccccc1)c1cccc(NS(=O)(=O)c2ccccc2)c1	4%	<= 200 uM	–	–	–	Not Active	–
O=S(=O)(Nc1ccc2c(c1)Cc1ccccc1-2)c1ccc(Cl)cc1Cl	70%	<= 200 uM	87%	0.8	4.1	–	–
O=C(c1ccccc1)c1cccc(NS(=O)(=O)c2ccc(Br)cc2)c1	92%	<= 200 uM	96%	2.2	–	–	–
Cc1ccc(S(=O)(=O)Nc2cccc(C(=O)c3ccccc3)c2)cc1	34%	<= 200 uM	34%	–	–	Not Active	–
O=C(c1ccccc1)c1ccc(NS(=O)(=O)c2ccc(Br)cc2)cc1	34%	<= 200 uM	34%	–	–	Not Active	–
CN(c1cccc(C(=O)c2ccccc2)c1)S(=O)(=O)c1ccc(Cl)cc1Cl	8%	–	–	–	–	Not Active	–
CN(c1ccc2c(c1)C(=O)c1ccccc1-2)S(=O)(=O)c1ccc(Cl)cc1Cl	0%	–	–	–	–	Not Active	–
O=C(c1ccccc1)c1ccc(OS(=O)(=O)c2ccc(Cl)cc2Cl)cc1	0%	–	–	–	–	Not Active	–
O=C1c2ccccc2-c2ccc(NS(=O)(=O)c3ccc(Cl)cc3Cl)cc21	93%	<= 200 uM	93%	1.2	–	–	–
O=C(c1ccccc1)c1ccc(NS(=O)(=O)c2ccccc2)cc1	0%	<= 200 uM	–	–	–	Not Active	–
